Source: US20210261538A1, “PROTEIN ARGININE METHYLTRANSFERASE 5 (PRMT5) DEGRADATION / DISRUPTION COMPOUNDS AND METHODS OF USE” (ICAHN SCHOOL OF MEDICINE AT MOUNT SINAI, priority 2018, published 2021)
“Also recorded” adds a separate entry of the source.

Experiments:
[1] = molecular target: T1, PRMT5 (Homo sapiens, UniProt O14744); assay: Western blot of PRMT5 protein levels in H2171 cells; type: cell-based; set-up: endogenous in cells; settings: 5 μM, 6 days
Experimental: (§1) MCF-7 cells, HEK293T cells and HeLa cells were cultured in Dulbecco's Modified Eagle Medium (DMEM) supplemented with 10% fetal bovine serum (FBS) in 5% CO2 at 37° C. Jurkat cells were cultured in RPMI 1640 medium supplemented with 10% FBS in 5% CO2 at 37° C. H2171 cells were cultured in HITES medium supplemented with 10% FBS in 5% CO2 at 37° C. HCT116 were cultured in McCoy's 5A medium supplemented with 10% fetal bovine serum (FBS) in 5% CO2 at 37° C. All the cells lines were treated with 5 μM (or indicated concentration) of PRMT5 inhibitor (EPZ015666) or degraders, or equivalent volume of DMSO for 6 days (or indicated time points). Fresh compounds were constituted in medium and used for every 2 days. The antibodies used in this study are: PRMT5 antibody (Active Motif), (3-actin antibody (Sigma), SDMA antibody (collaboration with Cell Signaling Technologies). Cell cultures were harvested at the end of compound treatments and applied subjected to western blotting assay. Briefly, cells were washed with PBS and lysed with RIPA lysis buffer for 20 minutes on ice. Then lysates were centrifuged and the clear supernatant were collected. SDS loading buffer was added to the lysates and then the mixture was boiled at 100° C. for 5 minutes. Samples were loaded to 10% or 12% SDS-PAGE gel and ran at 120V for 1.5 hours. […]

[2] = molecular target: T1, PRMT5; assay: Western blot of PRMT5 protein levels in Jurkat cells; type: cell-based; set-up: endogenous in cells; settings: 5 μM, 6 days
Experimental: as §1

[3] = molecular target: T1, PRMT5; assay: Western blot of PRMT5 protein levels in multiple cell lines; type: cell-based; set-up: endogenous in cells; host or cells: MCF-7; settings: MCF-7, Hela, Jurkat, HCT116, 293T and H2171 cells, 5 μM, 6 days
Experimental: as §1

[4] = tested on: MCF-7 cells; assay: Cell proliferation assay (Cell-Titer Glo) in MCF-7 cells; type: cell-based; settings: 5 μM, 10 days
Experimental: The same starting number of MCF-7 cells were treated with DMSO, 5 μM EPZ015666 or YS43-22 for up to 10 days. Every two days, fresh compounds were constituted in DMEM medium and added to the cell culture. Relative cell numbers were counted every two days (i.e. day 0, 2, 4, 6, 8 and 10) using Cell-Titer Glo kit (Promega). MCF-7 cells were treated with DMSO, EPZ015666 (5 μM), or YS43-22 (5 μM) for 10 days.

[5] = molecular target: T1, PRMT5; assay: Western blot of PRMT5 protein levels in HeLa cells; type: cell-based; set-up: endogenous in cells; settings: 5 μM, 6 days
Experimental: as §1

[6] = molecular target: T1, PRMT5; assay: Western blot of PRMT5 protein levels in 293T cells; type: cell-based; set-up: endogenous in cells; host or cells: 293T (HEK293T); settings: 5 μM, 6 days
Experimental: as §1

[7] = molecular target: T1, PRMT5; assay: Western blot of PRMT5 protein levels in MCF-7 cells; type: cell-based; set-up: endogenous in cells; host or cells: MCF-7
Experimental: MCF-7 cells, HEK293T cells and HeLa cells were cultured in Dulbecco's Modified Eagle Medium (DMEM) supplemented with 10% fetal bovine serum (FBS) in 5% CO2 at 37° C. Jurkat cells were cultured in RPMI 1640 medium supplemented with 10% FBS in 5% CO2 at 37° C. H2171 cells were cultured in HITES medium supplemented with 10% FBS in 5% CO2 at 37° C. HCT116 were cultured in McCoy's 5A medium supplemented with 10% fetal bovine serum (FBS) in 5% CO2 at 37° C. All the cells lines were treated with 5 μM (or indicated concentration) of PRMT5 inhibitor (EPZ015666) or degraders, or equivalent volume of DMSO for 6 days (or indicated time points). Fresh compounds were constituted in medium and used for every 2 days. The antibodies used in this study are: PRMT5 antibody (Active Motif), (3-actin antibody (Sigma), SDMA antibody (collaboration with Cell Signaling Technologies). Cell cultures were harvested at the end of compound treatments and applied subjected to western blotting assay. Briefly, cells were washed with PBS and lysed with RIPA lysis buffer for 20 minutes on ice. Then lysates were centrifuged and the clear supernatant were collected. SDS loading buffer was added to the lysates and then the mixture was boiled at 100° C. for 5 minutes. Samples were loaded to 10% or 12% SDS-PAGE gel and ran at 120V for 1.5 hours. Then the proteins were transferred to PVDF membrane and blocked in 5% milk fat at room temperature for 1 hour. Then the membranes were incubated with indicated antibodies at 4° C. overnight. Membranes were washed with PBST buffer three times for 10 minutes each time and incubated with HRP-conjugated (horse radish peroxidase) secondary antibodies at room temperature for 1 hour. Again the membranes were washed with PBST buffer three times for 10 minutes each time. Finally, the indicated proteins on the membranes were visualized with ECL (enhanced chemiluminescence) reagents. MCF-7 cells were treated with DMSO or indicated compounds at 5 μM for 6 days. […] MCF-7 cells were treated with DMSO or indicated serial dilutions of compounds for 6 days. The PRMT5 protein levels were determined by Western blot.

[8] = molecular target: T1, PRMT5; assay: Western blot of PRMT5 protein levels in HCT116 cells; type: cell-based; set-up: endogenous in cells; settings: 5 μM, 6 days
Experimental: as §1

[9] = Standard PK study in mice; type: in vivo, male Swiss Albino mice; settings: single 150 mg/kg IP injection
Experimental: Standard PK studies were conducted using male Swiss Albino mice. A single 150 mg/kg intraperitoneal (IP) injection of YS43-22 was evaluated. Plasma concentrations of YS43-22 reported at each of the six time points (15 min, 30 min, 1 h, 2 h, 6 h, and 12 h post dosing) are the average values from 3 test animals.

T1 sequence (O14744 whole entry): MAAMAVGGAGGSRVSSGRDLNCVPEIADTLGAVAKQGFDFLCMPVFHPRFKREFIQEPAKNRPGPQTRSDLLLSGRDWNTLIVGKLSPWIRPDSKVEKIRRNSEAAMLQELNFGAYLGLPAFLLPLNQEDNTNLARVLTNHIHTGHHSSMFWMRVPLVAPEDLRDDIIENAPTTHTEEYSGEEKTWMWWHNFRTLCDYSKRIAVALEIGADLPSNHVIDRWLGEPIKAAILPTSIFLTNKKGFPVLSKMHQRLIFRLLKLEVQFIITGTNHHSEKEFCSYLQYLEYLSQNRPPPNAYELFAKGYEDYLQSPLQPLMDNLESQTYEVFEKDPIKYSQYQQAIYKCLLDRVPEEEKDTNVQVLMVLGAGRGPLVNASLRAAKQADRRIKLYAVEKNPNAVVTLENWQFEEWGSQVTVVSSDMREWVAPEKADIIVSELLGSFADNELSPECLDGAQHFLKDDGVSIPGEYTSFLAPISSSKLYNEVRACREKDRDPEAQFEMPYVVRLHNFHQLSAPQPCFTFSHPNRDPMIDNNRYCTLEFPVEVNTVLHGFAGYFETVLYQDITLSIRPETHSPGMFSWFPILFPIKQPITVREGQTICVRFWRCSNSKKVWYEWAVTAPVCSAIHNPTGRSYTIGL
T1 sequence (Q9BQA1 whole entry partner): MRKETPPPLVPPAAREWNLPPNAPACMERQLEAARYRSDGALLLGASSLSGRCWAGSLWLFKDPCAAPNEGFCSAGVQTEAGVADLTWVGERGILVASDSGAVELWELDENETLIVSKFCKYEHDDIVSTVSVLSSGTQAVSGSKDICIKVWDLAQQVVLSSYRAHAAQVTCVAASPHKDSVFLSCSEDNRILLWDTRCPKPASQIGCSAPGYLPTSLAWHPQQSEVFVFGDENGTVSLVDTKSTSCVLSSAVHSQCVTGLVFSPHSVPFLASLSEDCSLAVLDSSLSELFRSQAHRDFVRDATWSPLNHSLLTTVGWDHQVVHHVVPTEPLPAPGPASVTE

Cc1ncsc1-c1ccc([C@H](C)NC(=O)[C@@H]2C[C@@H](O)CN2C(=O)[C@@H](NC(=O)COCCOCCOCCOCCOCC(=O)N2CC(Nc3cc(C(=O)NC[C@H](O)CN4CCc5ccccc5C4)ncn3)C2)C(C)(C)C)cc1 [YS43-22, N-((S)-3-(3,4-dihydroisoquinolin-2(1H)-yl)-2-hydroxypropyl)-6-((1-((S)-19-((2S,4R)-4-hydroxy-2-(((S)-1-(4-(4-methylthiazol-5-yl)phenyl)ethyl)carbamoyl)pyrrolidine-1-carbonyl)-20,20-dimethyl-17-oxo-3,6,9,12,15-pentaoxa-18-azahenicosanoyl)azetidin-3-yl)amino)pyrimidine-4-carboxamide]
PRMT5 protein levels [1]: not obviously
PRMT5 protein levels [2]: very well
PRMT5 protein levels in different cell lines [3]: significantly reduced
relative potency in down-regulation of PRMT5 protein levels [3]: more potent than YS43-8
cell growth of MCF-7 cells [4]: significantly reduced; also recorded: significant potency; also recorded: significantly inhibited
PRMT5 protein levels [5]: moderately
PRMT5 protein levels [6]: slightly
suppressing PRMT5 expression ([7]; MCF-7 cells (Examples 90-92)): especially effective
PRMT5 protein levels ([7]; MCF-7 cells, 5 μM, 6 days, Western blot): very well
PRMT5 protein levels, concentration and time dependence ([7]; MCF-7 cells, serial dilutions of compounds, 6 days, Western blot): concentration- and time-dependent; also recorded: significantly reduced
PRMT5 protein levels [8]: slightly
clinical observations [9]: no abnormal clinical observations
bioavailability (plasma concentrations) ([9]; 15 min to 12 h post dosing, 150 mg/kg): Bioavailable
